Laboratory results taken from patent publication US9801940B2, “Oral care compositions” (Colgate-Palmolive Company, priority 2010, dated 2017).

What follows are molecules tested on representative oral bacteria S. mutans, F. nucleatum, V. parvula, A. naslundii, P. gingivitis (assay: Bactericidal properties in in vitro tests).
Format: cell-based
From the text: As referred to herein, the expressions “extract of magnolia” or “magnolia extract” denote an extract from dried cortex, or bark, of a plant from the Magnoliaceae family, such as Magnolia officinalis, (hereinafter “magnolia”), or a synthetic or semi-synthetic equivalent of such an extract or an active component thereof. […] In other embodiments, the oral composition comprises an extract of magnolia. […] It should be noted that any plant from the Magnoliaceae family is suitable for extracting the active ingredients used in the present embodiment.

**Q.** Which “bactericidal properties against representative oral bacteria” value (“bactericidal properties” below) does the source give for `C=CCc1ccc(O)c(-c2cc(CC=C)ccc2O)c1` [magnolol] here?
**A.** The value was “demonstrated bactericidal properties”.

**Q.** With `CCCc1ccc(O)c(-c2cc(CCC)ccc2O)c1` [tetrahydromagnolol, 5,5′-dipropylbiphenyl-2,2′-diol] as the molecule, how does the “bactericidal properties” value read?
**A.** Its value is “demonstrated bactericidal properties”.

**Q.** `C=CCc1ccc(O)c(-c2ccc(O)c(CC=C)c2)c1` [honokiol] was tested. Which “bactericidal properties” value did it give?
**A.** The value was “demonstrated bactericidal properties”.

**Q.** Which “bactericidal properties” value does the source give for `CCCc1ccc(O)c(-c2ccc(O)c(CCC)c2)c1` [tetrahydrohonokiol, 3′,5-dipropylbiphenyl-2,4′-diol] here?
**A.** The value was “demonstrated bactericidal properties”.
